Measured values published in patent US20100099132A1, “BACTERIAL GROWTH INDUCER” (priority 2007, published 2010).

How the values were obtained:
E. coli = details: serum-based media; Table 2, prior art WO 98/53047; cited from earlier work
H. alvei = experiment: Effect of additions on synthesis of BuGro activity by H. alvei in M9 minimal media; type: cell-based, Hafnia alvei; details: added at inoculum stage to H. alvei M9 culture: 5% supernatant (approx. 50 units/ml) or 100 μM norepinephrine; listed as NE
Method: Therefore, H. alvei was inoculated at 2×10^6 CFU/ml into M9 minimal media supplemented with 0.4% (w/v) glucose only (ie no addition, N/A), or with 5% culture supernatant from a previous H. alvei M9 culture (approximately 50 units/ml) (HA), or with 100 μM norepinephrine (NE). The cultures were incubated at 37° C. in a rotatory shaking incubator for 18 hrs (final cell density: 2.17, 2.32 and 2.39×10^8 CFU/ml). Bacteria were removed by centrifugation at 10,000 g for 15 minutes, and the resulting culture supernatant was sterilised by passage through a 0.2 micron stericup filter. The sterile supernatant was assayed at various volumes using test strain E. coli E2348/69 inoculated at 10^2 CFU/ml into serum-SAPI media and incubated statically for 17 hrs at 37° C. in a humidified CO2 incubator. Growth levels were measured using Luria agar and pour plate analysis.

[1] = Stability (heat, lyophilisation, storage, enzymes, pH); type: physicochemical
Method: BuGro™ and the individual activity Peaks 1, 2 and 3 are each stable to 60 minutes boiling when in a heat-stable buffer such as 50 mM Tris-HCl, pH 7.5 or phosphate buffered saline (PBS). All are fully stable to lyophilisation, and if maintained in a lyophilised form, crude BuGro™ is 90-95% stable to storage at 4° C. for at least 2 years.

stability once synthesised in minimal media such as M9 [1] | Structure (SMILES) | effect on Bacxell synthesis (E. coli) | effect on synthesis of BuGro activity (H. alvei)
– | NC[C@H](O)c1ccc(O)c(O)c1 [norepinephrine] | 4. Induced by norepinephrine, but also | not induced
highly unstable | O=C(N[C@H]1COC(=O)[C@@H](NC(=O)c2cccc(O)c2O)COC(=O)[C@@H](NC(=O)c2cccc(O)c2O)COC1=O)c1cccc(O)c1O [enterobactin] | – | –
